Data set [1] is described as follows: n-octanol/PBS partition coefficient, shake flask. It is filed as physicochemical. The conditions noted are these: UV/vis. The method, then: First, the n-octanol/PBS partition coefficient values, log Poct/PBS, of the metal PSs were experimentally determined to quantify their lipophilicity (Figure S56). Indeed, the shake flask method was employed, and the metal content was measured in both phases by UV/vis spectroscopy. […]
an integrating sphere. For the determination of the luminescence lifetime, the fluorescence decay was measured on a FLS980 spectrofluorometer equipped with a TSCPC laser (Ir(III) complexes: λ ex = 405 nm; Ru(II) complexes: λ ex = 450 nm) and a REDPMT detector. The F980 spectrometer operating software was used to collect and process luminescence lifetime data.
Photostability of Ir(III) and Ru(II) complexes. The photostability of Ir(III) or Ru(II) complexes was monitored by 1H RMN. The 1.5 × 10−2 M solutions of the complexes in DMSO-d6:D2O (3:2) at 25 °C were irradiated with blue LED light (λ irr = 460 nm, 24 W) for different intervals of time. […]
Singlet oxygen generation. The capacity of Ir-Me and Ru-Me to generate singlet oxygen ( 1O2) was determined by an indirect method using 9,10-anthracenediyl-bis(methylene) dimalonic acid (ABDA) as a probe. The reaction between ABDA and 1O2 was monitored by UV-Vis and the gradual decrease of the maximum at 379 nm was used to quantify the ability of our complexes to generate 1O2. Aerated solutions of ABDA (8 × 10^-5 M) and the corresponding PS in H2O:DMSO (50:50) were irradiated with a blue LED strip (λ ir = 460 nm; 24 W) at room temperature for intervals of 5 minutes (0 min → 100 min) and UV-Vis spectra were recorded after every irradiation interval. Concentrations of PS were tuned to achieve similar values of absorbance at 460 nm (A460 nm ≈ 0.06). The singlet oxygen quantum yield (φ) was determined using Rose Bengal (RB) as standard reference (φ Δ = 0.75)6 and the following equation:7 […]
where kPS and kRB represent the decomposition rate constants of the photobleaching of ABDA determined by the slope calculated from the linear fit of ln(A 0/A) vs time. […]
Determination of Lipophilicity. […] The log P oct/PBS values were determined as follows: […]

The subject of data set [2] is PC-3 cells. Kind of data set: Clonogenic assay. It is filed as cell-based, human. The conditions noted are these: 5 μM, blue light irradiation, 10 days, versus control cells. The method, then:
The effect of the metallopeptides Ir-BN and Ru-BN as well as of the complexes Ir-H and Ru-H on the viability of PC-3 cells was next investigated through clonogenic assays, which determine the fraction of cells that survive treatment and retain the ability to generate new colonies.[56] This is a crucial feature of metastatic cancer cells, which need to proliferate in distant tissues to create secondary tumors. For this purpose, PC-3 cells were treated with the compounds at an equimolar concentration of 5 μM with or without photoactivation with blue light. Ten days later, the number of cells that survived and were able to grow and form colonies was assessed in comparison to control cells. Cells treated with cisplatin were used as a positive control.
Figure 8 Clonogenic assay. PC-3 cells were treated with the indicated compounds at 5 μM in the dark and with blue light irradiation. Control cells were treated with the medium alone. Cisplatin was used as a positive control. Cells were incubated for 10 days to allow colony formation. (A) Images of the colonies. (B) Bar charts representing the percentage of colonies versus control cells after each treatment (mean ± SD of 3 experiments). ** p < 0.01; *** p < 0.001 versus control cells.
PC-3 cells were seeded at a density of 100000 cells per well in 12-well plates and allowed to adhere for 24 h. The cells were treated with the compounds […] for 4 h and subsequently irradiated with blue light or kept in the dark for one hour. The treatments were then removed, and the cells were washed with PBS, harvested by trypsinization, and counted using a Novocyte flow cytometer (Agilent Technologies). Subsequently, 3000 cells were seeded in 5 cm culture dishes and incubated for 10 days to allow colonies to form. A colony was defined to consist of at least 50 cells. Cells treated with cisplatin (5 μM) were used as a positive control, and cells treated with the culture medium alone were used as a negative control. […] Each compound was evaluated in triplicate.

Residues, ends and D or L forms follow the SMILES beside them. *: point of attachment. X1 = Cn1c2ccccc2c2ccnc(-c3ccc(/C=C/C(=O)*)cn3)c21

As to `Cn1c2ccccc2c2ccnc(-c3ccc(/C=C/C(=O)O)cn3)c21.[Cl-].[Ir+3].[c-]1ccccc1-c1ccccn1.[c-]1ccccc1-c1ccccn1` [Ir-H], the “log Poct/PBS” value in data set [1] is 1.80. In data set [2], the “decrease in number of colonies” value worked out at 27.3%.
For `CC(C)C[C@H](NC(=O)[C@H](CC(C)C)NC(=O)[C@H](Cc1c[nH]cn1)NC(=O)CNC(=O)[C@@H](NC(=O)[C@H](C)NC(=O)[C@H](Cc1c[nH]c2ccccc12)NC(=O)[C@H](CCC(N)=O)NC(=O)[C@H](CC(N)=O)NC(=O)CNC(=O)[C@H](CC(C)C)NC(=O)[C@H](CCCNC(=N)N)NC(=O)[C@H](CCC(N)=O)NC(=O)/C=C/c1ccc(-c2nccc3c4ccccc4n(C)c23)nc1)C(C)C)C(N)=O` [Ir-BN] (X1-QRLGNQWAVGHLL-NH2), in data set [2], the “decrease in number of colonies” value worked out at 34.7%.
Turning to `Cn1c2ccccc2c2ccnc(-c3ccc(/C=C/C(=O)O)cn3)c21.[Cl-].[Cl-].[Ru+2].c1ccc(-c2ccccn2)nc1.c1ccc(-c2ccccn2)nc1` [Ru-H], the “log Poct/PBS” value in data set [1] is given as −1.10. Further, the “decrease in number of colonies” value in data set [2] is on record as “No effect”.
Regarding `COC(=O)/C=C/c1ccc(-c2nccc3c4ccccc4n(C)c23)nc1.[Cl-].[Ir+3].[c-]1ccccc1-c1ccccn1.[c-]1ccccc1-c1ccccn1` [Ir-Me], the “log Poct/PBS” value in data set [1] is on record as 2.03.

The values are drawn from publication PMC11483813, “Bombesin-Targeted Delivery of β-Carboline-Based Ir(III) and Ru(II) Photosensitizers for a Selective Photodynamic Therapy of Prostate Cancer” (Inorganic Chemistry, 2024).
